Several values for one entry are separate records, joined by “and”; a condition that tells them apart may be missing. Equal entries are not always repeated. Inconclusive results and toxic doses are left out.
System: P388 leukemia ip, CD2F1 mice, survival T/C
Assay: NCI In Vivo Anticancer Drug Screen. Data for tumor model P388 Leukemia (intraperitoneal) in CD2F1 (CDF1) mice
Conditions: endpoint: median survival time, higher = longer survival
How it was run: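 Mice carrying the transplanted tumor received test compound or vehicle. Survival was recorded in each group, and the value is the treated-group measurement divided by that of the vehicle-treated control group.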

[1] = dose: 25.0 mg/kg/injection, schedule: Q01DX009 (ip), vehicle: saline
[2] = dose: 50.0 mg/kg/injection, schedule: Q01DX009 (ip), vehicle: saline
[3] = dose: 100.0 mg/kg/injection, schedule: Q01DX009 (ip), vehicle: saline
[4] = dose: 200.0 mg/kg/injection, schedule: Q01DX009 (ip), vehicle: saline
[5] = dose: 60.0 mg/kg/injection, schedule: Q01DX005 (ip), vehicle: saline with Tween-80
[6] = dose: 120.0 mg/kg/injection, schedule: Q01DX005 (ip), vehicle: saline with Tween-80
[7] = dose: 25.0 mg/kg/injection, schedule: Q01DX009 (ip), vehicle: saline with Tween-80
[8] = dose: 50.0 mg/kg/injection, schedule: Q01DX009 (ip), vehicle: saline with Tween-80
[9] = dose: 100.0 mg/kg/injection, schedule: Q01DX009 (ip), vehicle: saline with Tween-80
[10] = dose: 200.0 mg/kg/injection, schedule: Q01DX009 (ip), vehicle: saline with Tween-80
[11] = dose: 50.0 mg/kg/injection, schedule: Q01DX005 (ip), vehicle: saline with Tween-80
[12] = dose: 100.0 mg/kg/injection, schedule: Q01DX005 (ip), vehicle: saline with Tween-80
[13] = dose: 200.0 mg/kg/injection, schedule: Q01DX005 (ip), vehicle: saline with Tween-80
[14] = dose: 100.0 mg/kg/injection, schedule: Q01DX001 (ip), vehicle: Klucel (hydroxypropylcellulose) (HPC)
[15] = dose: 200.0 mg/kg/injection, schedule: Q01DX001 (ip), vehicle: Klucel (hydroxypropylcellulose) (HPC)
[16] = dose: 400.0 mg/kg/injection, schedule: Q01DX001 (ip), vehicle: Klucel (hydroxypropylcellulose) (HPC)
[17] = dose: 50.0 mg/kg/injection, schedule: Q01DX009 (ip), vehicle: Klucel (hydroxypropylcellulose) (HPC)
[18] = dose: 100.0 mg/kg/injection, schedule: Q01DX009 (ip), vehicle: Klucel (hydroxypropylcellulose) (HPC)

With `COc1ccc(C)cc1NC(=S)NC(=O)/C=C/c1ccccc1` the T/C [1] was 97 % of control, the T/C [2] was 87 % of control and the T/C [3] was 96 % of control. The T/C [4] was 98 % of control.

In the case of `CCNC(=O)NS(=O)(=O)c1ccc(Sc2ccc(C)cc2)nc1`, the T/C [5] is reported as 98 % of control, the T/C [6] is reported as 101 % of control and the T/C (dose: 240.0 mg/kg/injection, schedule: Q01DX005 (ip), vehicle: saline with Tween-80) is reported as 94 % of control.

`CCN(CC)Cc1cc(C)c(O)c(N=Nc2ccc3ccc4cccc5ccc2c3c45)c1C` was tested, and the T/C (dose: 12.5 mg/kg/injection, schedule: Q01DX009 (ip), vehicle: saline with Tween-80) was 94 % of control, the T/C [7] was 87 % of control and the T/C [8] was 99 % of control and 122 % of control and 90 % of control. For the same compound, the T/C [9] was 105 % of control and 118 % of control and 94 % of control, the T/C [10] was 100 % of control and 105 % of control and the T/C (dose: 400.0 mg/kg/injection, schedule: Q01DX009 (ip), vehicle: saline with Tween-80) was 107 % of control.

`Nc1nc2c(ncn2C2OC(CO)C(O)C2O)c(=O)[nH]1.[Cl-].[Cl-].[NH2-].[NH2-].[Pt+4]` (stereo not drawn) was tested, and the T/C (dose: 2.0 mg/kg/injection, schedule: Q01DX009 (ip), vehicle: saline) was 118 % of control, the T/C (dose: 4.0 mg/kg/injection, schedule: Q01DX009 (ip), vehicle: saline) was 122 % of control and the T/C (dose: 8.0 mg/kg/injection, schedule: Q01DX009 (ip), vehicle: saline) was 172 % of control and 178 % of control. The T/C (dose: 16.0 mg/kg/injection, schedule: Q01DX009 (ip), vehicle: saline) was 216 % of control and 238 % of control and the T/C (dose: 32.0 mg/kg/injection, schedule: Q01DX009 (ip), vehicle: saline) was 93 % of control.

For `CN1C(=O)c2ccccc2NC(=O)C12O[C@@H]2c1ccccc1` (stereo partly drawn), the T/C (dose: 1.88 mg/kg/injection, schedule: Q01DX005 (ip), vehicle: DMSO) was 100 % of control, the T/C (dose: 3.75 mg/kg/injection, schedule: Q01DX005 (ip), vehicle: DMSO) was 106 % of control and the T/C (dose: 7.5 mg/kg/injection, schedule: Q01DX005 (ip), vehicle: DMSO) was 106 % of control. For the same compound, the T/C (dose: 15.0 mg/kg/injection, schedule: Q01DX005 (ip), vehicle: DMSO) was 114 % of control.

In the case of `O=C(OC(C(=O)O)C(OC(=O)c1ccccc1)C(=O)O)c1ccccc1` (stereo not drawn), the T/C [11] is reported as 106 % of control, the T/C [12] is reported as 99 % of control and the T/C [13] is reported as 98 % of control.

`COC(=O)C1(C)CCCC2(C)c3cc(OC)ccc3C3(CC12)SCCS3` (stereo not drawn) was tested, and the T/C (dose: 10.0 mg/kg/injection, schedule: Q01DX009 (ip), vehicle: saline with Tween-80) was 95 % of control, the T/C (dose: 20.0 mg/kg/injection, schedule: Q01DX009 (ip), vehicle: saline with Tween-80) was 99 % of control and the T/C (dose: 40.0 mg/kg/injection, schedule: Q01DX009 (ip), vehicle: saline with Tween-80) was 103 % of control.

With `Cc1ccc(S(=O)(=O)N2CCC(O)(c3ccccc3)CC2)cc1` the T/C [14] was 94 % of control, the T/C [15] was 94 % of control and the T/C [16] was 93 % of control.

In the case of `C[C@]12C=CC(=O)C(O)=C1CC[C@@H]1[C@@H]2CC[C@]2(C)OC(=O)CC[C@@H]12`, the T/C (dose: 5.5 mg/kg/injection, schedule: Q01DX005 (ip), vehicle: Klucel (hydroxypropylcellulose) (HPC)) is reported as 106 % of control, the T/C (dose: 11.0 mg/kg/injection, schedule: Q01DX005 (ip), vehicle: Klucel (hydroxypropylcellulose) (HPC)) is reported as 106 % of control and the T/C (dose: 22.0 mg/kg/injection, schedule: Q01DX005 (ip), vehicle: Klucel (hydroxypropylcellulose) (HPC)) is reported as 101 % of control. For the same compound, the T/C (dose: 44.0 mg/kg/injection, schedule: Q01DX005 (ip), vehicle: Klucel (hydroxypropylcellulose) (HPC)) was 106 % of control, the T/C (dose: 88.0 mg/kg/injection, schedule: Q01DX005 (ip), vehicle: Klucel (hydroxypropylcellulose) (HPC)) was 106 % of control and the T/C (dose: 176.0 mg/kg/injection, schedule: Q01DX005 (ip), vehicle: Klucel (hydroxypropylcellulose) (HPC)) was 107 % of control.

For `CN(C)CCN(C)c1cccc2c1C(=O)c1cscc1C2=O`, the T/C (dose: 25.0 mg/kg/injection, schedule: Q01DX005 (ip), vehicle: saline) was 100 % of control and the T/C (dose: 50.0 mg/kg/injection, schedule: Q01DX005 (ip), vehicle: saline) was 100 % of control and 92 % of control.

For `CCC(c1ccc(OCC(=O)N(CCCl)CCCl)cc1)C(CC)c1ccc(OCC(=O)N(CCCl)CCCl)cc1` (stereo not drawn), the T/C (dose: 100.0 mg/kg/injection, schedule: Q04DX002 (ip), vehicle: suspension in saline) was 98 % of control, the T/C (dose: 200.0 mg/kg/injection, schedule: Q04DX002 (ip), vehicle: suspension in saline) was 97 % of control and the T/C (dose: 400.0 mg/kg/injection, schedule: Q04DX002 (ip), vehicle: suspension in saline) was 103 % of control.

With `Cc1ccc(C(C(=O)O)(c2ccc(C)cc2)C(O)C(=O)O)cc1` (stereo not drawn) the T/C [14] was 107 % of control, the T/C [15] was 107 % of control and the T/C [16] was 105 % of control.

`CN(C)CC1(C)C(=O)N(C)C(=O)N(C2CCCCC2)C1=O` (stereo not drawn) was tested, and the T/C [7] was 100 % of control, the T/C [1] was 100 % of control and the T/C [8] was 107 % of control. For the same compound, the T/C [2] was 104 % of control and 105 % of control, the T/C [9] was 107 % of control and the T/C [3] was 113 % of control. For the same compound, the T/C [10] was 117 % of control and the T/C [4] was 122 % of control.

With `CSc1cc(C)c(C#N)c(SC)n1` the T/C [11] was 92 % of control, the T/C [12] was 89 % of control and the T/C [13] was 99 % of control.

In the case of `CC(C)C(NC(=O)C1CCCN1)P(=O)(O)O` (stereo not drawn), the T/C (dose: 60.0 mg/kg/injection, schedule: Q01DX005 (ip), vehicle: saline) is reported as 101 % of control, the T/C (dose: 120.0 mg/kg/injection, schedule: Q01DX005 (ip), vehicle: saline) is reported as 104 % of control and the T/C (dose: 240.0 mg/kg/injection, schedule: Q01DX005 (ip), vehicle: saline) is reported as 104 % of control.

In the case of `O=C(NC(Cc1c[nH]c2ccccc12)C(=O)NC(Cc1ccc(O)cc1)C(=O)O)OCc1ccccc1` (stereo not drawn), the T/C [11] is reported as 101 % of control, the T/C [12] is reported as 106 % of control and the T/C [13] is reported as 89 % of control.

With `C=CCNC(=S)Nc1ccccc1C(=O)c1ccccc1` the T/C [8] was 104 % of control, the T/C [9] was 103 % of control and the T/C [10] was 103 % of control.

With `CCCCCCCCNC(=O)C1C(=O)N(CCCCCCCC)C(=O)/C1=N/N` (stereo not drawn) the T/C (dose: 100.0 mg/kg/injection, schedule: Q04DX002 (ip), vehicle: saline with Tween-80) was 100 % of control and the T/C (dose: 200.0 mg/kg/injection, schedule: Q04DX002 (ip), vehicle: saline with Tween-80) was 92 % of control.

For `O=S(=O)(Oc1ccc(Cl)cc1)C(F)(F)C(F)(F)C(F)(F)C(F)(F)F`, the T/C [8] was 105 % of control, the T/C [9] was 108 % of control and the T/C [10] was 105 % of control.

With `O=C1c2ccccc2C(=O)N1CC1CC(S(=O)(=O)c2ccccc2)=NO1` (stereo not drawn) the T/C [11] was 94 % of control, the T/C [12] was 94 % of control and the T/C [13] was 102 % of control.

`N#CC(c1ccccc1)c1ccc2ccccc2n1` (stereo not drawn) was tested, and the T/C [5] was 92 % of control and the T/C [6] was 86 % of control.

For `N#CC(c1c(Cl)cccc1N1CCCCC1)N1CCCCC1` (stereo not drawn), the T/C [11] was 108 % of control, the T/C [12] was 104 % of control and the T/C [13] was 100 % of control.

For `O=c1[nH]ncn1-c1ccccc1`, the T/C (dose: 12.5 mg/kg/injection, schedule: Q01DX009 (ip), vehicle: Klucel (hydroxypropylcellulose) (HPC)) was 100 % of control, the T/C (dose: 25.0 mg/kg/injection, schedule: Q01DX009 (ip), vehicle: Klucel (hydroxypropylcellulose) (HPC)) was 109 % of control and the T/C [17] was 98 % of control. The T/C [18] was 106 % of control.

`OC(/C=C/c1ccccc1)Cc1nc2ccccc2[nH]1` (stereo not drawn) was tested, and the T/C [5] was 98 % of control and the T/C [6] was 88 % of control.

`Fc1ccc(N=Cc2cccs2)cc1` was tested, and the T/C [17] was 110 % of control, the T/C [18] was 107 % of control and the T/C (dose: 200.0 mg/kg/injection, schedule: Q01DX009 (ip), vehicle: Klucel (hydroxypropylcellulose) (HPC)) was 110 % of control.

In the case of `O=C(NC(=O)C1CCC(=O)N1Cc1ccccc1)NC1CCC(=O)N1Cc1ccccc1` (stereo not drawn), the T/C [5] is reported as 96 % of control and the T/C [6] is reported as 94 % of control.

In the case of `COc1cccc2c1C(=O)c1c(O)c3c(c(O)c1C2=O)C[C@@](O)(C(C)=O)C[C@@H]3OC1CC(N2CCOCC2C#N)C(O)C(C)O1` (stereo partly drawn), the T/C (dose: 0.2 mg/kg/injection, schedule: Q04DX003 (ip), vehicle: water) is reported as 191 % of control, the T/C (dose: 0.39 mg/kg/injection, schedule: Q04DX003 (ip), vehicle: distilled water + Tween-80) is reported as 187 % of control and the T/C (dose: 0.39 mg/kg/injection, schedule: Q04DX003 (ip), vehicle: water) is reported as 207 % of control. The T/C (dose: 0.78 mg/kg/injection, schedule: Q04DX003 (ip), vehicle: water) was 95 % of control.

Reference: PubChem BioAssay AID330 (DTP/NCI, 2004)
